Source: publication PMC6785188 (ACS chemical neuroscience, 2019)

Key:
[1] = biological target: T1, D1 (Homo sapiens, UniProt P21728); assay: BRET β-arrestin2 recruitment assay; assay type: cell-based; conditions: for activity in β-arrestin2 recruitment (in words): BRET; for Emax: read-out: β-arrestin2 EMAX
[2] = biological target: T1, D1; assay: D1R GS-mediated cAMP accumulation GloSensor assay; assay type: cell-based; conditions: for Emax: read-out: GS-cAMP EMAX; for activity in GS-cAMP accumulation (in words): GloSensor
[3] = test system: 6-OHDA-lesioned mice; assay: Motor activity study in 6-OHDA-lesioned mice; assay type: in vivo; conditions: 5 mg/kg i.p.

T1 sequence (P21728 whole entry): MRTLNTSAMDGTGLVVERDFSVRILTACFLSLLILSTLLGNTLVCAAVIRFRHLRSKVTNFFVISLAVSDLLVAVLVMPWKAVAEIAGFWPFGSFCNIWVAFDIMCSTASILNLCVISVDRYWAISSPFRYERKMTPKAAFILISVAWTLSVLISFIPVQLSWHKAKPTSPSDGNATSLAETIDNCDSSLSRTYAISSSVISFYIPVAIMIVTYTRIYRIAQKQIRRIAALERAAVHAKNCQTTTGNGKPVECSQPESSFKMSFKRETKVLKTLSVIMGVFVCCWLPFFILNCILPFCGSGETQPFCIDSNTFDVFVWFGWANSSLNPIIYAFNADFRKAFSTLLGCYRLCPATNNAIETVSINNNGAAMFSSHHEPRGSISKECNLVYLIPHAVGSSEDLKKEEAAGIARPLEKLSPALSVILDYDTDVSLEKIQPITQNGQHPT

SMILES	activity in β-arrestin2 recruitment (in words) [1]	EC50 [2]	Emax [2]	EC50 [1]	Emax [1]	forward locomotion compared to vehicle after 1 h ([3]; 61–90 min interval)	number of contralateral rotations vs vehicle ([3]; 90 min)	activity in GS-cAMP accumulation (in words) [2]
Cc1cc(Oc2nccc3occc23)ccc1-c1c(C)cn[nH]c1=O [Compound 13, 4-(4-(Furo[3,2-c]pyridin-4-yloxy)-2-methylphenyl)-5-methylpyridazin-3(2H)-one]	no activity	205 nM	82%	–	–	–	–	–
Cc1cc(Oc2nccc3occc23)ccc1-c1c(C)cnc(=O)n1C [Compound 11, 6-(4-(Furo[3,2-c]pyridin-4-yloxy)-2-methylphenyl)-1,5-dimethylpyrimidin-2(1H)-one]	–	1.8 nM	88%	151 nM	19%	–	–	–
Cc1cc(Oc2ccccn2)ccc1-c1c(C)c(=O)[nH]c(=O)n1C [Compound 30, 1,5-Dimethyl-6-(2-methyl-4-(pyridin-2-yloxy)phenyl)pyrimidine-2,4(1H,3H)-dione]	–	–	107%	–	40%	–	–	–
Cc1cc(Oc2nccc3ccccc23)ccc1-c1c(C)c(=O)[nH]c(=O)n1C [Compound 38, 6-(4-(Isoquinolin-1-yloxy)-2-methylphenyl)-1,5-dimethylpyrimidine-2,4(1H,3H)-dione]	–	0.4 nM	115%	> 10000 nM	–	–	–	–
Oc1cc2c(c(Cl)c1O)CCNCC2c1ccccc1 (stereo not drawn) [SKF81297, reference compound]	–	–	–	–	–	no longer displayed significantly increased forward locomotion	significant increases	–
Cc1cc(Oc2nccc3occc23)ccc1-c1cc(=O)[nH]cn1 [Compound 5, 6-(4-(Furo[3,2-c]pyridin-4-yloxy)-2-methylphenyl)pyrimidin-4(3H)-one]	–	133 nM	96%	> 10000 nM	–	–	–	–
Cc1cc(Oc2nccc3occc23)ccc1C1=CCN(C)CC1 [Compound 1, 4-(3-Methyl-4-(1-methyl-1,2,3,6-tetrahydropyridin-4-yl)-phenoxy)furo[3,2-c]pyridine]	largely inactive	–	–	–	–	–	–	largely inactive
Cc1cc(O)ccc1-c1c(C)c(=O)[nH]c(=O)n1C [Compound 28, 6-(4-Hydroxy-2-methylphenyl)-1,5-dimethylpyrimidine-2,4-(1H,3H)-dione]	inactive	–	–	–	–	–	–	inactive
Cc1cc(Oc2nccc3occc23)ccc1-c1cc[nH]c(=O)c1 [Compound 3, 4-(4-(Furo[3,2-c]pyridin-4-yloxy)-2-methylphenyl)pyridin-2(1H)-one]	no activity	176 nM	81%	–	–	–	–	–
Cc1cc(Oc2ncccc2C(F)(F)F)ccc1-c1c(C)c(=O)[nH]c(=O)n1C [Compound 32, 1,5-Dimethyl-6-(2-methyl-4-((3-(trifluoromethyl)pyridin-2-yl)-oxy)phenyl)pyrimidine-2,4(1H,3H)-dione]	–	–	118%	–	30%	–	–	–
Cc1cc(Oc2nccc3occc23)ccc1-c1c(C)c(=O)[nH]c(=O)n1CC1CC1 [Compound 19, 1-(Cyclopropylmethyl)-6-(4-(furo[3,2-c]pyridin-4-yloxy)-2-methylphenyl)-5-methylpyrimidine-2,4(1H,3H)-dione]	no activity	0.5 nM	84%	–	–	–	–	–
COc1ccnc(Oc2ccc(-c3c(C)c(=O)[nH]c(=O)n3C)c(C)c2)c1 [Compound 31, 6-(4-((4-Methoxypyridin-2-yl)oxy)-2-methylphenyl)-1,5-dimethylpyrimidine-2,4(1H,3H)-dione]	–	2 nM	108%	52 nM	27%	–	–	–
CCn1c(-c2ccc(Oc3nccc4occc34)cc2C)c(C)c(=O)[nH]c1=O [Compound 17, 1-Ethyl-6-(4-(furo[3,2-c]pyridin-4-yloxy)-2-methylphenyl)-5-methylpyrimidine-2,4(1H,3H)-dione]	–	0.08 nM	95%	13 nM	65%	–	–	–
Cc1cc(Oc2nccc3occc23)ccc1-c1cn[nH]c(=O)c1C [Compound 12, 5-(4-(Furo[3,2-c]pyridin-4-yloxy)-2-methylphenyl)-4-methylpyridazin-3(2H)-one]	–	1.1 nM	92%	196 nM	63%	–	–	–
COc1ccc(-c2c(C)c(=O)[nH]c(=O)n2C)c(C)c1 [Compound 29, 6-(4-Methoxy-2-methylphenyl)-1,5-dimethylpyrimidine-2,4-(1H,3H)-dione]	inactive	–	–	–	–	–	–	inactive
COc1ccnc(Oc2ccc(-c3c(C)c(=O)[nH]c(=O)n3C)c(C)c2)c1C#N [Compound 33, 2-(4-(3,5-Dimethyl-2,6-dioxo-1,2,3,6-tetrahydropyrimidin-4-yl)-3-methylphenoxy)-4-methoxynicotinonitrile]	no activity	23 nM	59%	–	–	–	–	–
Cc1c(-c2ccc(Oc3nccc4occc34)cc2)n(C)c(=O)[nH]c1=O [Compound 27, 6-(4-(Furo[3,2-c]pyridin-4-yloxy)phenyl)-1,5-dimethylpyrimidine-2,4(1H,3H)-dione]	–	0.08 nM	96%	40 nM	75%	–	–	–
Cc1cc(Oc2nccc(Cl)c2C(F)(F)F)ccc1-c1c(C)c(=O)[nH]c(=O)n1C [Compound 34, 6-(4-((4-Chloro-3-(trifluoromethyl)pyridin-2-yl)oxy)-2-methyl-phenyl)-1,5-dimethylpyrimidine-2,4(1H,3H)-dione]	no activity	105 nM	82%	–	–	–	–	–
Cc1cc(Oc2nccc3occc23)ccc1-c1cc(N)nc(N)n1 [Compound 8, 6-(4-(Furo[3,2-c]pyridin-4-yloxy)-2-methylphenyl)pyrimidine-2,4-diamine]	no activity	> 10000 nM	–	–	–	–	–	–
Cc1cc(Oc2nccc3sccc23)ccc1-c1c(C)c(=O)[nH]c(=O)n1C [Compound 39, 1,5-Dimethyl-6-(2-methyl-4-(thieno[3,2-c]pyridin-4-yloxy)-phenyl)pyrimidine-2,4(1H,3H)-dione]	–	7 nM	104%	13 nM	30%	–	–	–
Cc1cc(-c2c(C)c(=O)[nH]c(=O)n2C)ccc1Oc1nccc2occc12 [Compound 26, 6-(4-(Furo[3,2-c]pyridin-4-yloxy)-3-methylphenyl)-1,5-dimethylpyrimidine-2,4(1H,3H)-dione]	no activity	33 nM	100%	–	–	–	–	–
Cc1cc(Oc2nccc3occc23)ccc1-c1c(C)c(=O)[nH]c(=O)n1C1CCC1 [Compound 20, 1-Cyclobutyl-6-(4-(furo[3,2-c]pyridin-4-yloxy)-2-methylphenyl)-5-methylpyrimidine-2,4(1H,3H)-dione]	no activity	0.8 nM	82%	–	–	–	–	–
Cc1cc(Oc2nccc3occc23)ccc1-c1cc(=O)[nH]c(=O)[nH]1 [Compound 9, 6-(4-(Furo[3,2-c]pyridin-4-yloxy)-2-methylphenyl)pyrimidine-2,4(1H,3H)-dione]	–	9 nM	78%	2090 nM	37%	–	–	–
